Laboratory results as given in US6375979B2 (Somerset Pharmaceuticals, Inc., priority 1995, dated 2002).
Where “and” joins values, the source holds several entries; their conditions need not be identical. Identical values can stand only once. Like-named read-outs stand apart in the source and are kept apart here.

Tests used:
[1] = tested on: cultured rat mesencephalic cells; test: Medium change (glutamate receptor dependent) model of cell death: TH positive cells
Protocol: (§2) In these experiments, cells were plated and allowed to stabilize for several days.

[2] = tested on: interleukin-2 production; test: Concanavalin A-induced interleukin-2 production by spleen cells of treated old rats; format: in vivo, rat; details: ip daily 60 days
Protocol: The present experiments utilized a rat model to examine the ability of R(−)DMS and S(+)DMS to restore immunological function. Rats were divided into the following experimental groups:
(§1) Rats were administered saline or test agent ip, daily for 60 days. They were then maintained for an additional “wash out” period of 10 days during which time no treatment was given. At the end of this time, animals were sacrificed and their spleens were removed. The spleen cells were then assayed for a variety of factors which are indicative of immune system function. Specifically, standard tests were employed to determine the following:
2) in vitro concanavalin A-induced production of interleukin-2;

[3] = target: T1, MAO-A (Rattus norvegicus, UniProt P21396)
T1 sequence (P21396 1-526): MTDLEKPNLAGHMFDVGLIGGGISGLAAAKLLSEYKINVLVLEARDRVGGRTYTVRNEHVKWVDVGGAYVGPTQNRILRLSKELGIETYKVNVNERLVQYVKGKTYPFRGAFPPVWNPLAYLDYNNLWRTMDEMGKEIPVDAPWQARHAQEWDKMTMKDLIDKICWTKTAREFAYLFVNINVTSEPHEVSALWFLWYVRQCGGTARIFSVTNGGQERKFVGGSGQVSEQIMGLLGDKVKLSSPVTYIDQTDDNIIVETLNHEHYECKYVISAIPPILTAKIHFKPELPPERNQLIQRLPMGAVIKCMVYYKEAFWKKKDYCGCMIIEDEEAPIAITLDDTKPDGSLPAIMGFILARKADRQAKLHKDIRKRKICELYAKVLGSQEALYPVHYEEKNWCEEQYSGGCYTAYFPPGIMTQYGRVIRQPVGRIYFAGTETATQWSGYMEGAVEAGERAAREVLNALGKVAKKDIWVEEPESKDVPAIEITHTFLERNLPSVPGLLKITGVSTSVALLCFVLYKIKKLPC

[4] = tested on: cultured rat mesencephalic cells exposed to NMDA; test: NMDA model of cell death: TH immunochemistry; details: 50 μM, 100 μM NMDA exposure
Protocol: Rat mesencephalic cell cultures were exposed to 100 μM NMDA and incubated as described above in connection with FIG. 16.

[5] = tested on: TH positive cells in cultured E-14 embryonic mesencephalic cells
[6] = tested on: cultured rat mesencephalic cells exposed to NMDA; test: NMDA model of cell death: [3H]-dopamine uptake; details: 50 μM, 100 μM NMDA exposure
[7] = tested on: cultured embryonic mesencephalic cells; test: Neuronal survival: [3H]dopamine uptake by cultured mesencephalic cells; format: cell-based, rat
Description: The amount of uptake by the cultured brain cells corresponds to axonal growth.

[8] = tested on: γ-interferon production; test: γ-interferon production by concanavalin A-stimulated spleen cells of treated old rats; format: in vivo, rat; details: old rats, ip daily 60 days; 1.0 mg/kg (for DMS enantiomers)
Protocol: Rats were divided into the following experimental groups:
as §1
1) in vitro production of γ-interferon by concanavalin A-stimulated spleen cells;

[9] = target: T2, dopamine re-uptake system (Rattus norvegicus, UniProt P23977); test: Inhibition of dopamine re-uptake in rat neostriatal synaptosome preparation; format: biochemical
T2 construct: (synaptosome preparation) was obtained form fresh rat neostriatal brain tissue; from tissue; host or cells: rat neostriatum, synaptosome preparation
Protocol: An in vitro nerve terminal preparation (synaptosome preparation) was prepared using fresh rat neostriatal tissue.
FIG. 19: Determination of IC50 Values for Inhibition of Dopamine Re-Uptake.
An in vitro nerve-terminal preparation (synaptosome preparation) was obtained form fresh rat neostriatal brain tissue. Transport by dopamine nerve-terminals was estimated by measuring the uptake of tritiated dopamine.

[10] = target: T3, MAO-A (Cavia porcellus, UniProt H0UVA2); test: MAO-A inhibition in guinea pig hippocampal homogenates in vitro; format: biochemical; set-up: by human platelets and/or guinea pig hippocampal homogenates; from tissue; host or cells: guinea pig hippocampus homogenate
T3 sequence (H0UVA2 1-461): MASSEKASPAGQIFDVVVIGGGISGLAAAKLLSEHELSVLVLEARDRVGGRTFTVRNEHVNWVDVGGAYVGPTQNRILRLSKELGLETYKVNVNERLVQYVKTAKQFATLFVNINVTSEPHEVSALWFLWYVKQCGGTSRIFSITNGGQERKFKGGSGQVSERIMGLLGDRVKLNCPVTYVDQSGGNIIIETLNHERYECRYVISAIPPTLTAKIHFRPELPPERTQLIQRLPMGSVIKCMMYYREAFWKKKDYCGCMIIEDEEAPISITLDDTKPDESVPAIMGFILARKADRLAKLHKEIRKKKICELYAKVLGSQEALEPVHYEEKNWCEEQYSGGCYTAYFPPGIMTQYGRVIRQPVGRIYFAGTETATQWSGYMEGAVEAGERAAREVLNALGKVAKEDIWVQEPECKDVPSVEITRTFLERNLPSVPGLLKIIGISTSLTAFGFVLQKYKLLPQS
Description: Human platelet MAO is comprised exclusively of the type-B isoform of the enzyme. […] The present study also examined the two enantiomers of DMS for inhibitory activity with respect to the MAO-A and MAO-B in guinea pig hippocampal tissue. Guinea pig brain tissue is an excellent animal model for studying brain dopamine metabolism, the enzyme kinetics of the multiple forms of MAO and the inhibitory properties of novel agents that interact with these enzymes. The multiple forms of MAO in this animal species show similar kinetic properties to those found in human brain tissue. Finally, the test agents were administered to guinea pigs and the extent to which they might act as inhibitors of brain MAO in vivo was assessed.
In vitro: The test system utilized the in vitro conversion of specific substrates of MAO-A (^14C-serotonin) and MAO-B (^14C-phenylethylamine) by human platelets and/or guinea pig hippocampal homogenates. […] A percent inhibition was calculated from these values.

[11] = tested on: cultured rat mesencephalic cells; test: Medium change (glutamate receptor dependent) model of cell death: [3H]-dopamine uptake; details: for neuron protection by measurement of dopamine uptake (FIG. 15): glutamate receptor dependent model
Protocol: Preparations are then added to 10 ml Ecoscint (National Diagnostics) and counted in a scintillation spectrometer.
as §2

[12] = 50 μM, medium change model, listed as Deprenyl
[13] = 1.0 mg/kg (for DMS enantiomers)

T2 sequence (P23977 whole entry): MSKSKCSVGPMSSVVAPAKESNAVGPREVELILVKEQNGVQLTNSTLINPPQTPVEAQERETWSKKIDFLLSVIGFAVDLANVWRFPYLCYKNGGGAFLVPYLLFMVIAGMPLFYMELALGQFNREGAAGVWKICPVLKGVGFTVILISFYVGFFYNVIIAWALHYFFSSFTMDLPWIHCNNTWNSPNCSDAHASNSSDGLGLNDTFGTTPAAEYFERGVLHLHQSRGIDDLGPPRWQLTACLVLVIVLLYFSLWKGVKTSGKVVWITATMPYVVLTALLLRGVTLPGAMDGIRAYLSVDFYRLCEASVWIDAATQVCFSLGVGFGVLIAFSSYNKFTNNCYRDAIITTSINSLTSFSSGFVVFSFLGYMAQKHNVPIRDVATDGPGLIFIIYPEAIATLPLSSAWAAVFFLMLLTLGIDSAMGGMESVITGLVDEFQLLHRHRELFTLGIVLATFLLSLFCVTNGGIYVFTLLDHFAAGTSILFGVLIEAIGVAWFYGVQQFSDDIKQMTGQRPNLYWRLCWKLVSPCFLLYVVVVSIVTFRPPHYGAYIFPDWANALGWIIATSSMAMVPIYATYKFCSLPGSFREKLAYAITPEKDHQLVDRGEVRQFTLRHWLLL

C#CCN(C)[C@H](C)Cc1ccccc1 [Selegiline, R-(−)-N-methyl-N-(prop-2-ynyl)-2-aminophenylpropane, reference compound]
TH Immunochemistry, % control, Mean ([1]; 50 μM, medium change model): 130.6%
TH Immunochemistry, cells/cm^2, Mean ([1]; 50 μM, medium change model): 344.17 cells/cm^2
TH Immunochemistry, % control, individual cultures [1, 12]: 146.0% and 124.2% and 121.4%
TH Immunochemistry, cells/cm^2, individual cultures [1, 12]: 385.0 cells/cm^2 and 327.5 cells/cm^2 and 320.0 cells/cm^2
survival of dopaminergic neurons (FIGS. 11 and 12) ([1]; 0.5, 5.0 or 50 μM, 4 days of daily medium changes, TH staining and dopamine uptake): promotes the survival of dopaminergic neurons
IL-2 % control [2, 13]: 376%
IL-2 U/ml mean [2, 13]: 73.78 U/ml
IL-2 U/ml mean ([2]; […] (for R(−)DMS by group order)): 109.6 U/ml
inhibition ([3]; 0.3 µM): 9.75%
inhibition ([3]; 1 μM): 32.5%
inhibition ([3]; 3 µM): 65.5%
inhibition ([3]; 10 μM): 97.8%
TH Immunochemistry, % control, Mean [4]: 234.3%
TH Immunochemistry, cells/cm^2, Mean [4]: 220.63 cells/cm^2
TH Immunochemistry, % control, individual cultures ([4]; listed as Deprenyl): 244.2% and 305.3% and 199.1% and 188.5%
TH Immunochemistry, cells/cm^2, individual cultures ([4]; listed as Deprenyl): 230.0 cells/cm^2 and 287.5 cells/cm^2 and 187.5 cells/cm^2 and 177.5 cells/cm^2
Survival of TH positive cells, % cont. ([5]; 0.5 μM): 185.81%
Survival of TH positive cells, Mean cells/cm^2 ([5]; 0.5 μM): 201.70 ± 25.01 cells/cm^2
Survival of TH positive cells, % cont. ([5]; 5 μM): 218.33%
Survival of TH positive cells, Mean cells/cm^2 ([5]; 5 μM): 237.00 ± 12.59 cells/cm^2
Survival of TH positive cells, % cont. ([5]; 50 μM): 269.25%
Survival of TH positive cells, Mean cells/cm^2 ([5]; 50 μM): 292.28 ± 17.41 cells/cm^2
Dopamine uptake, % control, Mean [6]: 257.4%
Dopamine uptake, counts/min, Mean [6]: 17393.8 counts/min
Dopamine uptake, % control, individual cultures ([6]; listed as Deprenyl): 228.1% and 273.5% and 251.0% and 259.8% and 274.9%
Dopamine uptake, counts/min, individual cultures ([6]; listed as Deprenyl): 15410 counts/min and 18479 counts/min and 16958 counts/min and 17550 counts/min and 18572 counts/min
3H-Dopamine Uptake, % Cont ([7]; 0.5 μM): 120.6%
3H-Dopamine Uptake, Mean ([7]; 0.5 μM): 14452 ± 212
3H-Dopamine Uptake, % Cont ([7]; 5 μM): 137.5%
3H-Dopamine Uptake, Mean ([7]; 5 μM): 16468 ± 576
3H-Dopamine Uptake, % Cont ([7]; 50 μM): 275.5%
3H-Dopamine Uptake, Mean ([7]; 50 μM): 33018 ± 1317
IFN-γ % control [8]: 550%
IFN-γ U/ml mean [8]: 1934 U/ml
3H-Dopamine uptake, % Reduction x ± SEM ([9]; 1 μM): 13.9 ± 4.7%
3H-Dopamine uptake, % Reduction x ± SEM ([9]; 10 μM): 16.3 ± 3.8%
3H-Dopamine uptake, % Reduction x ± SEM ([9]; 100 μM): 7.0 ± 3.6%
3H-Dopamine uptake, % Reduction x ± SEM ([9]; 100 μM (last row of each agent)): 59.8 ± 1.0%
IC50 [10]: 2500 nM
inhibition at 0.3 µM ([10]; 300 nM, guinea pig hippocampus, read-out: MAO-A % Inhibition x = SEM): 11.9 ± 2.4%
inhibition at 1 µM ([10]; 1 μM, guinea pig hippocampus, read-out: MAO-A % Inhibition x = SEM): 22.1 ± 1.2%
inhibition at 3 µM ([10]; 3 μM, guinea pig hippocampus, read-out: MAO-A % Inhibition x = SEM): 53.5 ± 2.7%
reduction in potency compared to selegiline (value in parentheses) ([10]; MAO-A IC50, guinea pig hippocampal cortex): 1
neuron protection by measurement of dopamine uptake (FIG. 15) ([11]; 50 μM): neuron protection
Dopamine uptake, % control, Mean ([11]; 50 μM, medium change model): 170.1%
Dopamine uptake, counts/min, Mean ([11]; 50 μM, medium change model): 35714 counts/min
Dopamine uptake, % control, individual cultures [11, 12]: 181.2% and 162.6% and 175.3% and 161.3%
Dopamine uptake, counts/min, individual cultures [11, 12]: 38053 counts/min and 34130 counts/min and 36810 counts/min and 33863 counts/min

C[C@]12N[C@H](Cc3ccccc31)c1ccccc12 [MK-801, reference compound]
neuron protection by measurement of dopamine uptake (FIG. 15) ([11]; 10 μM): protection was also obtained

C#CCN(C)Cc1ccccc1 [Pargyline, pargyline, reference compound]
neuron protection by measurement of dopamine uptake (FIG. 15) ([11]; at the concentrations used (0.5, 5 and 50 μM)): did not appear to offer any protection

C#CCN(C)CCCOc1ccc(Cl)cc1Cl [clorgyline, reference compound]
neuron protection by measurement of dopamine uptake (FIG. 15) ([11]; 50 μM): protected

NCCc1ccc(O)c(O)c1 [Dopamine, dopamine, reference compound]
3H-Dopamine uptake, % Reduction x ± SEM ([9]; 1 μM): 52.0 ± 4.9%
3H-Dopamine uptake, % Reduction x ± SEM ([9]; 10 μM): 80.9 ± 0.4%
